Key:
[1] = molecular target: GH101 endo-α-N-acetylgalactosamindase (EngSP) (Streptococcus pneumoniae, UniProt Q8DR60); conditions: only minimal aglycone release in controls
Procedure: Both GlcNAc-β1,3-GalNAc-MU and GlcNAc-β1,3-GalNAc-pNP were assayed as potential substrates for the core 3 T-antigen cleaving enzyme endo-α-N-acetylgalactosaminidase from Streptococcus pneumoniae R6 (EngSP)^47,66. For GlcNAc-β1,3-GalNAc-MU, in a 96-well plate 2 μL of the AchP reaction was combined with 48 μL reaction buffer A and reaction initiated by adding 0.4 μL spGH101 (10 mg/mL). Release of MU was monitored continuously in a BioTek Synergy H1 Hybrid™ microtiter plate reader (Ex. 365 nm, Em. 440 nm) (FIG. 6). For GlcNAc-β1,3-GalNAc-pNP, in a 96-well plate 10 μL of the AchP reaction was combined with 39 μL reaction buffer A and initiated by adding 1 μL EngSP (10 mg/mL). Release of pNP was monitored continuously in a BioTek Synergy H1 Hybrid™ microtiter plate reader (absorbance 400 nm) (FIG. 6).

[2] = molecular target: T1, AchP (Acholeplasma laidlawii, UniProt A9NH41); assay: Purified AchP donor and acceptor specificity screen; assay type: biochemical; conditions: 3 h room temperature, absorbance 655 nm
Procedure: AchP was heterologously expressed, purified and screened, in the absence of cell lysate, against an extended set of donors and acceptors, including additional N-acetamido sugars, using a phosphorylase screening method described previously that couples the chromogenic development of molybdenum blue to the liberation of free phosphate during reverse phosphorolysis^39,41 (FIG. 1A). When incubated with Glc1-P as donor, AchP was active in the presence of the acceptors GlcNAc, GlcNAc-β1-pNP, GalNAc and GlcNAc-β1,4-GlcNAc, while no activity was detected with the non-acetylated glucosamine and galactosamine. With GlcNAc1-P as donor, AchP was active with all acceptors that contained an N-acetyl moiety, as well as with glucose and glucosamine, but not galactose and galactosamine.
Thirty-six donor and acceptor combinations were done with purified AchP in a 25 μL reaction volume. 10 μL buffer (200 mM HEPES pH 7.0, 200 mM NaCl, 10 mM MgSO4, 400 mM sodium molybdate) was combined with 5 μL water, 2.5 μL donor (100 mM Glc1-P, 100 mM GlcNAc1-P or 100 mM GalNAc1-P) and 2.5 acceptor (500 mM Glc, 400 mM GlcN, 500 mM GlcNAc, 100 mM GlcNAc-β1-pNP, 500 mM Gal, 500 mM GalN, 500 mM GalNAc, 100 mM GalNAc-α1-pNP, 100 mM Glc-β1,3-Glc, 100 mM GlcNAc-β1,4-GlcNAc, 500 mM ManNAc or no acceptor) in a 200 μL PCR tube. 5 μL of purified AchP (0.2 mg/mL) was added to each reaction which were then incubated for 3 h at room temperature. Each 25 μL reaction was transferred to a separate well of a 96-well plate. 75 μL of development solution was added to each well then incubated for 5 min at room temperature before the reaction was stopped by adding 50 μL of quenching solution. Absorbance at 655 nm was measured with a BioTek Synergy H1 Hybrid™ microtiter plate reader.

[3] = molecular target: T1, AchP; assay: AchP reverse phosphorolysis kinetics (phosphate release, molybdenum blue); assay type: biochemical
Procedure: (§1) Kinetic parameters for AchP reverse phosphorolysis were determined using the phosphate release method described previously^44. In brief, phosphate release was coupled to the formation of molybdenum blue, which can be quantified by measuring absorbance at 655 nm. Phosphate concentration was determined using a standard curve ranging between 0 and 10 mM phosphate. Kinetic parameters for AchP were determined with four donor and acceptor combinations: (A) Glc1-P and GlcNAc, (B) Glc1-P and GalNAc, (C) GlcNAc1-P and GlcNAc, and (D) GlcNAc1-P and GalNAc. Donor concentration was held constant at 10 mM while the concentrations of the acceptors were varied (as described below). Reactions were initiated by adding 5 μL of 0.25 mg/mL AchP to 10 μL 2× buffer (200 mM HEPES pH 7.0, 200 mM NaCl, 10 mM MgSO4 and 400 mM sodium molybdate), 2.5 μL of 100 mM donor, 2.5 μL of […] acceptor and 5 μL water. Reactions were stopped at the times (t) indicated below by boiling for 5 min, then 20 μL from each reaction was transferred to a 96-well plate. Molybdenum blue formation was initiated by adding 90 μL of color development solution (0.1 N HCl and 0.24% sodium ascorbate) then incubated for 30 min at room temperature. The color development reaction was stopped by adding 90 μL of quenching solution (68 mM sodium citrate and 2% acetic acid). Absorbance at 655 nm was measured with a BioTek Synergy H1 Hybrid™ microtiter plate reader. All reactions were performed in triplicate and acceptor concentrations were chosen to encompass apparent Km value where possible. (A) 10 mM Glc1-P; 0, 1, 5, 10, 25, 50, 100, 200 and 300 mM GlcNAc; t=2 min 45 s. (B) 10 mM Glc1-P; 0, 5, 25, 50, 100, 150, 200, 300 and 380 mM GalNAc; t=5 min. (C) 10 mM GlcNAc1-P; 0, 0.1, 0.25, 0.5, 1, 2, 5, 10, 25 and 50 mM GlcNAc; t=3 min. (D) 10 mM GlcNAc1-P; 0, 5, 10, 25, 50, 100, 150, 200 and 300 mM GalNAc; t=3 min. Non-linear regression was performed using GraphPad Prism™ version 6.0. For (A) and (C) data were fit using the Michaelis-Menten equation incorporating substrate inhibition: For (B) and (D) data were fit using the standard Michaelis-Menten equation: […]

[4] = molecular target: T1, AchP; assay: AchP forward phosphorolysis product analysis (TLC); assay type: biochemical; conditions: with phosphate
Procedure: (A) AchP products with GlcNAc1-P (donor) and GlcNAc (GNAc1), GlcNAc-β1,4-GlcNAc (GNAc2), or GlcNAc(-β1,4-GlcNAc)3 (GNAc4) (acceptors) were analyzed by TLC, where the products are outlined in black boxes. (B) AchP forward phosphorolysis product analysis with GlcNAc-β1,4-GlcNAc and phosphate and the reverse phosphorolysis with Glc1-P and GlcNAc was include as a control reaction.
Of the six activities described to date in the GH94 family only the N,N′-diacetylchitobiose phosphorylases (ChbP) are known to use GlcNAc1-P as donor, transferring only to monosaccharide GlcNAc acceptors and not to di- or trisaccharides. The other five types utilize Glc1-P. The bacteria from which both characterized ChbPs were discovered are native to marine environments where chitin, a polysaccharide of β1,4-linked GlcNAc and the primary structural component of the exoskeleton of marine invertebrates, is common. Presumably these ChbPs act on disaccharides released from chitin by chitinases. AchP on the other hand is able to utilize GlcNAc-β1,4-GlcNAc and GlcNAc(-β1,4-GlcNAc)3 as acceptors performing iterative addition of N-acetylglucosaminyl residues (FIG. 4A). As noted earlier, we initially anticipated that AchP was a chitin phosphorylase. […]

[5] = molecular target: T1, AchP; assay: AchP reverse phosphorolysis kinetics (phosphate release, molybdenum blue); assay type: biochemical; conditions: as donor (GalNAc1-P) or acceptor (glucose); reasonable substrate and enzyme concentrations
[6] = substrate: CC(=O)NC1C(O)[C@H](O)C(CO)O[C@H]1O; assay: as above; assay type: biochemical, Acholeplasma laidlawii; conditions: acceptor concentration varied, pH 7.0
Procedure: as §1

[7] = substrate: CC(=O)NC1C(O)[C@@H](O)C(CO)O[C@@H]1O; assay: as above; assay type: biochemical, Acholeplasma laidlawii; conditions: other: donor αGlcNAc1-P 10 mM; acceptor concentration varied; pH 7.0
Procedure: as §1

Chain of GH101 endo-α-N-acetylgalactosamindase (EngSP) (Q8DR60 40-1738 limits assumed): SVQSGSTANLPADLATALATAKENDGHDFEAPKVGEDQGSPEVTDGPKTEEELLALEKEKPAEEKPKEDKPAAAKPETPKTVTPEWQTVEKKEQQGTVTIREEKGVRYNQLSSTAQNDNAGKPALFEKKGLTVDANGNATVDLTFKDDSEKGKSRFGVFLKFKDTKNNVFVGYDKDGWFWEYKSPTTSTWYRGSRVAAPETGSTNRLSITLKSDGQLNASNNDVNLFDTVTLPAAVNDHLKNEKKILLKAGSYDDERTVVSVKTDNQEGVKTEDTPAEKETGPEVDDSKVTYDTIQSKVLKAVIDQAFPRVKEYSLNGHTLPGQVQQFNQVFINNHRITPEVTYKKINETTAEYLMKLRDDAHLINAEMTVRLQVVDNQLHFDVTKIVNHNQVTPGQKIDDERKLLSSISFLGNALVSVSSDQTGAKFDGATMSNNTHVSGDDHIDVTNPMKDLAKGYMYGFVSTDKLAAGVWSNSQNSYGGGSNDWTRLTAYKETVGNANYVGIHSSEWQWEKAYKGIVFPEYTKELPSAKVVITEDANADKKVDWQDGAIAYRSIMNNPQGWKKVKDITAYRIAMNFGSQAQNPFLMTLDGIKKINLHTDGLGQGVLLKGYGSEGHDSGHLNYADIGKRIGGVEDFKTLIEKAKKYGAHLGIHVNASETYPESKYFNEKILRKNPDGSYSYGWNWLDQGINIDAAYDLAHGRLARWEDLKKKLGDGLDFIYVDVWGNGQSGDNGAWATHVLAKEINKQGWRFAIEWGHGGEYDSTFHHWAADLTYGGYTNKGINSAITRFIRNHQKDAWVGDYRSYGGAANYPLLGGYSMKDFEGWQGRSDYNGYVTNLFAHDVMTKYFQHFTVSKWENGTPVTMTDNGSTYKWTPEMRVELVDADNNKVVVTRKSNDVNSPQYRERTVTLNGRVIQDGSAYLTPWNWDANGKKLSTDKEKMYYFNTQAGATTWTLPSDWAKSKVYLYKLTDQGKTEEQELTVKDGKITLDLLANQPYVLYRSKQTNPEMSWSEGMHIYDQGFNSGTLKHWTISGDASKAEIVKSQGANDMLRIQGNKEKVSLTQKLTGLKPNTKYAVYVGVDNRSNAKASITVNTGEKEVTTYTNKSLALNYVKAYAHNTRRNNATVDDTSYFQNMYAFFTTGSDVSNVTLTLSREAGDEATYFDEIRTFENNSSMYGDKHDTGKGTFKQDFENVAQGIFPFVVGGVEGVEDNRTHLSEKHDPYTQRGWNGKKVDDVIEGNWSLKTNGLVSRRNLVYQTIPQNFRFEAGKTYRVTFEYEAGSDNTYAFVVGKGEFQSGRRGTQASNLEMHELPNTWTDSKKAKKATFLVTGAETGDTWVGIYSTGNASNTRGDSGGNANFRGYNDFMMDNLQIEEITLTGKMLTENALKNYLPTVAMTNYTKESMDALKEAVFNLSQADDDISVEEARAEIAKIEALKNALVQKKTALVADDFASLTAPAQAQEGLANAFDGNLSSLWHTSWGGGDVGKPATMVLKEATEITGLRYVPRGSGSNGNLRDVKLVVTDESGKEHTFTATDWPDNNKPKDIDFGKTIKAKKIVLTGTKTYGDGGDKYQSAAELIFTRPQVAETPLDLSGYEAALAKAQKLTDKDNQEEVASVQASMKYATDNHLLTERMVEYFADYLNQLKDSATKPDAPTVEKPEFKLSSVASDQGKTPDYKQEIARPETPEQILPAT

## CC(=O)NC1C(OC2C(O)C(CO)OC(Oc3ccc4c(C)cc(=O)oc4c3)C2NC(C)=O)OC(CO)C(O)C1O (stereo not drawn) [GlcNAc-β1,3-GalNAc-α1-MU]
[1]
  aglycone release after incubation with EngSP: release of both pNP and MU aglycones could be detected

## CC(=O)NC1C(O)[C@@H](O)C(CO)O[C@@H]1O (stereo partly drawn) [GalNAc, N-acetylgalactosamine]
[2]; Glc1-P as donor
  AchP activity with acceptor: active
[3]; donor αGlc1-P 10 mM, acceptor concentration varied
  kcat: 12.5 ± 0.5 s⁻¹

## CC(=O)NC1C(OC2C(O)C(CO)OC(Oc3ccc([N+](=O)[O-])cc3)C2NC(C)=O)OC(CO)C(O)C1O (stereo not drawn) [GlcNAc-β1,3-GalNAc-α1-pNP]
[1]
  aglycone release after incubation with EngSP: release of both pNP and MU aglycones could be detected

## N[C@H]1C(O)O[C@H](CO)[C@H](O)[C@@H]1O (stereo partly drawn) [galactosamine]
[2]; Glc1-P as donor
  AchP activity with acceptor: no activity
[2]; GlcNAc1-P as donor
  AchP activity with acceptor: not

## O=C[C@H](O)[C@@H](O)[C@@H](O)[C@H](O)CO [galactose, D-galactose]
[2]; GlcNAc1-P as donor
  AchP activity with acceptor: not

## CC(=O)N[C@H]1[C@H](Oc2ccc([N+](=O)[O-])cc2)O[C@H](CO)[C@@H](O)[C@@H]1O [GlcNAc-β1-pNP]
[2]; Glc1-P as donor
  AchP activity with acceptor: active

## CC(=O)N[C@H]1[C@H](O[C@H]2[C@H](O)[C@@H](NC(C)=O)C(O)O[C@@H]2CO)O[C@H](CO)[C@@H](O)[C@@H]1O (stereo partly drawn) [GlcNAc-β1,4-GlcNAc, N,N′-diacetylchitobiose]
[4]
  phosphorolysis (substrate cleavage): no substrate cleavage could be detected
[2]; Glc1-P as donor
  AchP activity with acceptor: active

## CC(=O)N[C@H]1C(OP(=O)(O)O)O[C@H](CO)[C@H](O)[C@@H]1O (stereo partly drawn) [GalNAc1-P]
[5]
  Activities (kinetic parameters not determined): too low

## CC(=O)NC1C(O)[C@H](O)C(CO)O[C@H]1O (stereo partly drawn) [GlcNAc, N-acetyl-glucosamine]
[2]; Glc1-P as donor
  AchP activity with acceptor: active
[3]; donor αGlcNAc1-P 10 mM, substrate inhibition fit
  Ki: 27.1 ± 3.6 mM

## CC(=O)N[C@H]1[C@@H](OP(=O)(O)O)O[C@H](CO)[C@@H](O)[C@@H]1O [GlcNAc1-P, α-N-acetylglucosamine 1-phosphate]
[3]; GlcNAc as acceptor
  Km value lower than with Glc1-P as donor: ~10 fold
  kcat greater than with Glc1-P as donor: 2 fold

## OC[C@H]1O[C@@H](O[C@H]2[C@H](O)[C@@H](CO)OC(O)[C@@H]2O)[C@H](O)[C@@H](O)[C@@H]1O (stereo partly drawn) [laminaribiose]
[2]; Glc1-P as donor
  AchP activity with acceptor: no activity

## N[C@H]1C(O)O[C@H](CO)[C@@H](O)[C@@H]1O (stereo partly drawn) [glucosamine]
[2]; Glc1-P as donor
  AchP activity with acceptor: no activity
[2]; GlcNAc1-P as donor
  AchP activity with acceptor: active

B1: AchP (Acholeplasma laidlawii PG-8A) (protein)
chain: MKLKQDVISIYQKISLFESGQLNITKLASGAYYLDDELTLITDPVNSGARFPYAVNGMTIWAYASGYISINHSSYYILPPNLEGKEPFLDFFGIEQDGNNTYPVSLLGVSERNDEIENKRYTVFSKNIAYYITVTKNFLYAVTVYISKDFKIYFNTVAHNLTGETKQITLSSFFNMLFKYDSGESIETKWFKKVSYENNMFIYDAPEDIDRHTRIENYGVVKRHLHTKPKNIQNTTSRIDYVGKRYRSVRNALSIRSLKFEKAPLVTNFTDTAINADLINYEVKAYDTIISSYRIETCHDKDTLNKMMASDLTDKEIKKVYEGLSNTQSYDFDNFGISFKGVNDNRVDDKVLNQFLKLVNYQIHFSSLSSNSGTVFLGVRDVMQQLESSLIWDRKNVRSKILEVLSFIDPSGLPPRQYALPPKEGNPRMDLRPFIDQGLWIISTLHTYLAYTEDYDILNEVCGYYERIEPNSAKKSKVENSVLEHLIRVTNYLVSNIDPSTYGLKALYGDWNDALDGLGLIEGSSGYGNGVSVMATLQLYENLERMIEILKLVDPQNEHINTYEVVRHNLSLGINKYAVVIKQDEKRVLHGWGHDRSYFVGSFNDPDGHSRNSLTSNAFYIISDMIKNTPEMKPHLLHAFHNLDSKYGLKTFDPAMQDFHGFGRIINLPPGTAENAATYVHATLFGVLALYMLGEGDFANEQVLKVLPITKKEMSTSPFIMPNSYVHNEELNMDGESMSDWYTGSANTLLKTLIRGLFGLEVKFDHLRLRPSKAFFSKEATLMVSIGNKLTRIVYKNNNNGNRTFKLNGKVIEAKLDTLSGLLYIDINKSILEHQNVIHIQD
[6]; other: donor αGlc1-P 10 mM
  Km: 29.9 ± 3.7 mM
  kcat: 24.2 ± 1.6 s⁻¹
  kcat/Km: 800 ± 400 M⁻¹ s⁻¹
[6]; other: donor αGlcNAc1-P 10 mM
  Km: 3.5 ± 0.4 mM
  kcat: 50.8 ± 3.2 s⁻¹
  kcat/Km: 14500 ± 8000 M⁻¹ s⁻¹
[7]
  Km: 71.4 ± 4.1 mM
  kcat: 46.7 ± 0.9 s⁻¹
  kcat/Km: 700 ± 200 M⁻¹ s⁻¹

Reference: patent US20240287564A1, “ACHOLETIN BIOPOLYMERS AND METHODS FOR ENZYMATIC SYNTHESIS” (THE UNIVERSITY OF BRITISH COLUMBIA, priority 2021, published 2024)
